Legend:
bladder [1] = experiment: Example 1: bladder pressure response to intra-arterial Ach after vaginal oxybutynin gel; format: in vivo, rabbit; details: for response of the bladder pressure to Ach: high dose (0.5 g Oxybutynin/g gel, 3 g vaginal)
Description: (§1) 16 mature female New Zealand white rabbits were separated into two groups of eight. The rabbits in Group 1 received a high dose oxybutynin formulations; and the rabbits in Group 2 received a low dose oxybutynin formulation. For the high dose, 3 grams (g) of oxybutynin HCl were suspended in 6 g of gel (yielding a concentration of 0.5 g Oxybutynin/g gel) and 3 g of the formulation were placed in the vagina. For the low dose, 0.3 g of oxybutynin HCl were suspended in 6 g of gel (yielding a concentration of 0.05 g Oxybutynin/g gel), and 3 g of the formulation were placed in the vagina.
(§2) Each rabbit was sedated with an intramuscular injection of ketamine-xylazine ((25 mg ketamine+6 mg xylazine)/kg rabbit) and anesthesia was maintained by isoflurane. After anesthesia, the right external carotid artery was cannulated for blood pressure monitoring. A polyethylene catheter (Intramedic) with an outer diameter of 0.043 inches was inserted through the rabbit's right femoral artery until it reached the lower abdominal aorta (approximately 0.5 cm above the bifurcation of the aorta). A heparizined saline (30 iu/mL) filled polyethylene catheter was used for intra-arterial administration of drugs. To facilitate the delivery of the maximum amount of drugs to the urinary bladder, the rabbit's left femoral artery was ligated.
The bladder was exposed through a midline incision, and the bladder dome was catheterized with an 8 F catheter for both the monitoring of bladder pressure and for cystometry. The bladder neck-urethra was ligated to prevent micturition or leakage through the urethra. The catheter was connected to an infusion pump (Harvard Apparatus) and a pressure transducer.
Acetylcholine (Ach), a chemical that causes the bladder muscle (detrusor) to squeeze or contract, was injected through the intra-arterial polyethylene catheter in a volume of 0.31-0.39 mL (i.e., 0.1 mL/kg of rabbit), followed by 0.2 mL of heparinized saline. Change of intravesical pressure following the administration of Ach (10^−6 mol/kg) was monitored by the pressure transducer and recorded on a Grass model 7D polygraph. A 10-minute interval passed between Ach administrations, and three flushes of normal saline, in an amount of 0.1 ml/kg of rabbit, were administered. Three responses to Ach were performed at 10-minute intervals to ensure consistent responses.
After the third Ach administration, the application of the oxybutynin containing gel was administered to the vagina and the responses to Ach were determined at 15-minute intervals for 2 hours. When the response to Ach was reduced, then the time period was extended to 4 hours. At the end of the experiment, a second cystometric curve was generated.

blood pressure = experiment: Example 2: vascular response to Ach; format: in vivo, rabbit; details: entire 4-hour period
Description: as §1
Each rabbit was sedated with an intramuscular injection of ketamine-xylazine ((25 mg ketamine+6 mg xylazine)/kg rabbit) and anesthesia was maintained by isoflurane. […]
Acetylcholine (Ach), a chemical that causes the bladder muscle (detrusor) to squeeze or contract, was injected through the intra-arterial polyethylene catheter in a volume of 0.31-0.39 mL (i.e., 0.1 mL/kg of rabbit), followed by 0.2 mL of heparinized saline. Change of intravesical pressure following the administration of Ach (10^−6 mol/kg) was monitored by the pressure transducer and recorded on a Grass model 7D polygraph. […]
After the third Ach administration, the application of the oxybutynin containing gel was administered to the vagina and the responses to Ach were determined at 15-minute intervals for 2 hours. […]

bladder [2] = experiment: Example 3: cystometry after vaginal or oral oxybutynin; format: in vivo, rabbit; details: for micturition pressure: four hours after administration
Description: 30 mature female New Zealand white rabbits (˜4 kg) were separated into five groups of six rabbits each. Intra arterial administration of Ach was used as a model for hyperreflexia. The effects on intra arterial stimulated contraction were compared with effects on micturition pressure generation.
as §2, with “Central Mutual” for “cm”
The bladder was exposed through a midline incision, and the bladder dome was catheterized with an 8 F catheter for both the monitoring of bladder pressure and for cystometry. The bladder neck-urethra was ligated to prevent micturition or leakage through the urethra. The catheter was connected to an infusion pump (Harvard Apparatus) and a pressure tranducer. The right carotid artery was cannulated for monitoring blood pressure. Bladder pressure and blood pressure were recorded on a Grass model 7D Polygraph, and were simultaneously digitized using a Polyview A/D digital analytical system.
Cystometry was performed at 1.4 mL/min until a micturition contraction or a volume of 80 mL was obtained. After the first cystometry, Ach (10^−6 mol/kg) was injected through the intra-arterial polyethylene catheter in a volume of 0.1 ml/kg followed by three washes of 0.2 ml of heparinized saline. The blood pressure and bladder pressure responses were recorded and digitized.
After three consistent Ach tests, (i.e. responses within 20% of each other) the rabbits in the control group (Group 1) received a vaginal administration of 3 mL of gel (no oxybutynin); the rabbits in the high dose group (Group 2) received a vaginal administration of 1.5 g of oxybutynin suspended in 3 mL of gel; the rabbits in the intermediate dose group (Group 3) received 0.5 g of oxybutynin suspended in 3 mL of gel; the rabbits in the low dose group (Group 4) received a vaginal administration of 0.15 g of oxybutynin suspended in 3 mL of gel; and the rabbits in the oral dose group (Group 5) received 0.5 g of an oral preparation of oxybutynin dissolved in 3 mL of saline.
Ach was administered at 10 minute intervals for two hours, and then a second cystometry was performed. Ach administration continued at 10 minute intervals for a second two hour period, and then a final cystometry performed.
Statistical significance was determined using analysis of variance followed by Bonferroni test for individual differences. A p<0.05 was required for significance.

[3] = solid device containing oxybutynin inserted in the vagina of a rabbit (Schröder); cited from earlier work

Question: For CCN(CC)CC#CCOC(=O)C(O)(c1ccccc1)C1CCCCC1 (stereo not drawn) [oxybutynin], which “response of the bladder pressure to Ach” value (bladder [1]; 15 minutes after administration) is on record?
Answer: completely lost

Question: What about the “response of the bladder pressure to Ach” value (bladder [1]; 4 hours after administration) of the same molecule?
Answer: did not increase

Question: And the “reduction of the response of the bladder pressure to Ach” value (bladder [1]; low dose (0.05 g/g gel) vaginal, one experiment)?
Answer: about 50%

Question: And the “effect on bladder pressure response to Ach” value (bladder [1]; low dose (0.05 g/g gel) vaginal, two out of three experiments)?
Answer: no significant effect

Question: What about the “contractile response of the bladder to Ach” value (bladder [1]; vaginally delivered high dose, overall) of the same molecule?
Answer: significantly reduced

Question: What about the “vascular response to Ach” value (blood pressure; high dose vaginal) of the same molecule?
Answer: no effect

Question: What about the “vascular response to Ach” value (blood pressure; low dose vaginal) of the same molecule?
Answer: no effect

Question: What about the “bladder volume at micturition” value (bladder [2]; all of the formulations (vaginal low, intermediate, high; oral)) of the same molecule?
Answer: significant increase

Question: What about the “Bladder Compliance” value (bladder [2]; all oxybutynin-treated groups) of the same molecule?
Answer: decreased

Question: What about the “decrease of Bladder Compliance” value (bladder [2]; high dose vaginal) of the same molecule?
Answer: 7.3 fold

Question: And the micturition reflex (bladder [2]; highest dose)?
Answer: virtually eliminated

Question: What about the “decrease of Bladder Compliance” value (bladder [2]; intermediate dose vaginal) of the same molecule?
Answer: 4.5 fold

Question: What about the “decrease of Bladder Compliance” value (bladder [2]; low dose vaginal) of the same molecule?
Answer: 3.3 fold

Question: What about the “intravesical pressure immediately prior to micturition” value (bladder [2]; oral (0.5 g in 3 mL saline)) of the same molecule?
Answer: significantly reduced

Question: What about the “inhibitory effects on the micturition reflex, oral compared with the vaginal route” value (bladder [2]; oral preparation vs intermediate dose vaginal) of the same molecule?
Answer: significantly greater inhibitory effects

Question: What about the “effect on Bladder Compliance and bladder capacity, oral compared with the vaginal route” value (bladder [2]; oral preparation vs intermediate dose vaginal (equal effects on Ach stimulated contraction)) of the same molecule?
Answer: smaller effect

Question: And the micturition pressure (bladder [2]; oral)?
Answer: significantly reduced

Question: And the “intravesical pressure immediately prior to micturition” value (bladder [2]; vaginal high dose (1.5 g in 3 mL gel))?
Answer: significantly reduced

Question: What about the micturition pressure (bladder [2]; vaginal high dose) of the same molecule?
Answer: significantly reduced

Question: What about the “intravesical pressure immediately prior to micturition” value (bladder [2]; vaginal intermediate dose (0.5 g in 3 mL gel)) of the same molecule?
Answer: significantly reduced

Question: And the micturition pressure (bladder [2]; vaginal intermediate dose)?
Answer: not significantly affected

Question: What about the “intravesical pressure immediately prior to micturition” value (bladder [2]; vaginal low dose (0.15 g in 3 mL gel)) of the same molecule?
Answer: no significant effect

Question: What about the micturition pressure (bladder [2]; vaginal low dose) of the same molecule?
Answer: not significantly affected

Question: What about the “systemic levels of oxybutynin” value [3] of the same molecule?
Answer: effective at reducing the systemic levels

From US8226972B2, “Vaginal delivery of drugs” (FemmePharma Holding Company, Inc., priority 2001, dated 2012)
